Data published in patent US20240415972A1, “MICROFRAGMENTED FAT TISSUE AS DRUG DELIVERY SYSTEM IN LIVER CANCER THERAPY” (LIPOGEMS INTERNATIONAL S.P.A., priority 2021, published 2024).
Values after ≈ are worked out from the molar mass of the structure shown. Read-outs that look alike come from different tables or passages of the source.

What was measured:
MIB-1/Ki67 = assay: Immunohistochemistry of proliferation marker MIB-1/Ki67 in Hep-3B tumor of treated mice; assay type: in vivo, athymic nude-Foxn1nu mice; settings: DMFAT-PTX at both dosages; free PTX 10 mg/kg
Protocol: After evaluation of conventional H&E stained, ten white sections were then obtained from each sample to be processed for immunohistochemical (IHC) staining. IHC was carried out automatically by means of Leica Bond MaxTM technology (Arginase, CK-PAN, CK7 and ANTI-EPATO) and Ventana Bench Mark Ultra (Ki-67): ANTI-HEPATO: antigen retrieval 30' EDTA, (dil. 1:300 clone […] Dako-Agilent); […] antigen retrieval 30' EDTA, (dil. 1:100 Clone SP156 Cell Marque […]. clone 30-9 Roche-Ventana); CK-PAN: antigen retrieval 5' Enzyma, (dil. 1:200 clone MNF116 Dako Agilent); CK-7: antigen retrieval 15' EDTA, dil. 1:100 clone OV-TL 12/20 Dako Agilent. All section stained was evaluated on NIKON ECLIPSE E 600 Microscopy equipped with OLYMPUS DP21 Camera.

Hep-3B cells = assay: PTX anti-proliferative activity on Hep-3B cells in culture; assay type: cell-based, human
Protocol: In (A) PTX at different concentration from 0.1 to 1000 ng/ml was added to cultured Hep-3B cells After 72 hours of incubation cells were detached and counted. […] In (B) photographs (10× magnification) of Hep-3B cultured in presence of PTX showing its potent growth inhibition at concentration up to 25 ng/ml are reported.
To this end, different concentration of PTX (from 0.1 ng/ml to 1000 ng/ml) were added to culture medium.

Hep-3B tumor = assay: In vivo anti-tumor activity, single-shot local injection next to sc Hep-3B tumor
Protocol: Five-week-old athymic nude-Foxn1nu mice were purchased from Envigo (Envigo, Bresso, Italy) and were housed under pathogen-free conditions. Experiments were reviewed and approved by the licensing and ethical committee of IZSLER (Istituto Zooprofilattico Sperimentale della Lombardia e dell'Emilia Romagna, Brescia, Italy) and by the Italian Ministry of Health.
In a preliminary experiment, 3 mice were injected subcutaneously (s.c.) with 5×10^6 Hep-3B cells in 100 ul of MTG in the right flank. Mice were observed daily to establish the day of tumor appearance and when the nodule was 1 cm in diameter, mice were sacrificed and tumor was removed and investigated to verify the HCC features by histological examination. […] In the first series of experiments, mice (n=6/group) were injected with 5×10^6 Hep-3B cells in the right flank (day 0). The tumors were allowed to grow to an average 0.5/0.7 cm in diameter corresponding to a tumor volume ranging from 65 to 179 mm^3 (median weight 120 mg) that were calculated using the formula 1/6πd^3 (13). […] Loading of PTX into just thawed DMFAT specimens were performed 20-30 minutes before injection as described above, adding 1 mg of PTX (around 166 μl of the stock PTX solution 6 mg/ml) to 1 ml of DMFAT and agitation. […] According to the ethical protocol, all the mice were sacrificed when the tumor nodule reached 2.0-2.5 cm in diameter (≥2 g of weight) or, whatever the diameter, sacrificed on day 60 after the transplant. […] Animals were euthanized with carbon dioxide inhalation, followed by cervical dislocation.

- IC50, dose of PTX required to reduce 50% Hep-3B growth (Hep-3B cells; 72 hours of incubation, cells detached and counted): 0.015 ± 0.003 µg/mL
- IC50 (Hep-3B cells; Homo sapiens, Hep3B, read-out: IC50, dose of PTX required to reduce 50% Hep-3B growth, 72 hours of incubation, cells detached and counted): 0.015 ± 0.002 µg/mL (≈ 0.0176 µM)
- IC90 (Hep-3B cells; Homo sapiens, Hep3B, read-out: IC90, dose of PTX required to reduce 90% Hep-3B growth, 72 hours of incubation, cells detached and counted): 0.025 ± 0.008 µg/mL (≈ 0.0293 µM)
- IC50 (Hep-3B cells; Homo sapiens, Hep3B, restated for comparison with tissue concentrations, read-out: IC50 of the PTX on Hep-3B cells): 0.015 µg/mL (≈ 0.0176 µM)
SMILES: CC(=O)O[C@H]1C(=O)[C@@]2(C)[C@H]([C@H](OC(=O)c3ccccc3)[C@]3(O)C[C@H](OC(=O)[C@H](O)[C@@H](NC(=O)c4ccccc4)c4ccccc4)C(C)=C1C3(C)C)[C@]1(OC(C)=O)CO[C@@H]1C[C@@H]2O [PTX, Paclitaxel]
- Ki67 expression in tumor (MIB-1/Ki67): Some reduction
- Skin lesions / ulceration at the site of injection (Hep-3B tumor; 10 mg/kg (200 μg/200 μl), local sc injection): did not induce skin ulcers
- Effect on tumor growth compared to CTRL (Hep-3B tumor; series A: 200 μl, PTX 10 mg/kg where present): No significant effect
- % of mice cured (Hep-3B tumor; series A: PTX 200 μg (10 mg/kg) where present, tumor-free after 90 days): 0%
- Day of sacrifice (Hep-3B tumor; series A: single shot 200 μl, PTX 200 μg (10 mg/kg) where present): 33 ± 3
- % of mice tumor-free (Hep-3B tumor; series A: single shot 200 μl, PTX 200 μg (10 mg/kg) where present, at 60 days): 0%
- HCC (TW) (Grams ± SD) (Hep-3B tumor; series A: single shot 200 μl, PTX 200 μg (10 mg/kg) where present, tumor weight at sacrifice): 2.010 ± 0.377 Grams
